Results taken from ChEMBL document CHEMBL3085706, “Scorpiand-like azamacrocycles prevent the chronic establishment of Trypanosoma cruzi in a murine model” (Eur J Med Chem, 2013).
Active and inactive are the calls of the source. The rule behind the calls is not given here.

How the values were obtained:
Trypanosoma cruzi [1] = assay: Trypanocidal activity against amastigote form of Trypanosoma cruzi IRHOD/CO/2008/SN3 infected in African green monkey Vero cells assessed as inhibition of parasite infection rate at IC25 preincubated for 12 hrs followed by compound washout measured after 10 days by Giemsa staining-based microscopic analysis relative to control; type: functional
Trypanosoma cruzi [2] = assay: Trypanocidal activity against bloodstream trypomastigote form of Trypanosoma cruzi IRHOD/CO/2008/SN3 infected in BALB/c mouse assessed as reduction of anti-parasitic Ig-G level in serum at 5 mg/kg/day, ip administered for 5 days measured over 40 to 120 days post-infection by ELISA; type: functional, organism-based
Mus musculus [3] = assay: Hepatotoxicity in BALB/c mouse infected with bloodstream trypomastigote form of Trypanosoma cruzi IRHOD/CO/2008/SN3 assessed as centrilobular destruction of hepatic vein at 5 mg/kg/day, ip administered for 5 days measured 150 days post-infection by light microscopic analysis; type: toxicity, organism-based; set-up: route intraperitoneal; conditions: in vivo, 3600 h
Mus musculus [4] = assay: Hepatotoxicity in BALB/c mouse infected with bloodstream trypomastigote form of Trypanosoma cruzi IRHOD/CO/2008/SN3 assessed as vessels with thickened walls at 5 mg/kg/day, ip administered for 5 days measured 150 days post-infection by light microscopic analysis; type: toxicity, organism-based; set-up: route intraperitoneal; conditions: in vivo
Trypanosoma cruzi [5] = assay: Trypanocidal activity against epimastigote form of Trypanosoma cruzi IRHOD/CO/2008/SN3 assessed as inhibition of lactate excretion at IC25 after 96 hrs by NMR spectra analysis; type: functional, organism-based
Mus musculus [6] = assay: Hepatotoxicity in BALB/c mouse infected with bloodstream trypomastigote form of Trypanosoma cruzi IRHOD/CO/2008/SN3 assessed as presence of necrotic cells in portal space at 5 mg/kg/day, ip administered for 5 days measured 150 days post-infection by light microscopic analysis; type: toxicity, organism-based; set-up: route intraperitoneal; conditions: in vivo, 3600 h
[7] = Selectivity index, ratio of IC50 for African green monkey Vero cells to IC50 for extracellular trypomastigote form of Trypanosoma cruzi IRHOD/CO/2008/SN3; type: toxicity, cell-based; conditions: read-out: Ratio IC50
Trypanosoma cruzi [8] = assay: Trypanocidal activity against epimastigote form of Trypanosoma cruzi IRHOD/CO/2008/SN3 assessed as inhibition of alanine excretion at IC25 after 96 hrs by NMR spectra analysis; type: functional, organism-based
Mus musculus [9] = assay: Hepatotoxicity in BALB/c mouse infected with bloodstream trypomastigote form of Trypanosoma cruzi IRHOD/CO/2008/SN3 assessed as granuloma with lymphocytic infiltrate at 5 mg/kg/day, ip administered for 5 days measured 150 days post-infection by light microscopic analysis; type: toxicity, organism-based; set-up: route intraperitoneal; conditions: in vivo, 3600 h
[10] = Inhibition of Fe-SOD in Trypanosoma cruzi IRHOD/CO/2008/SN3 epimastigotes assessed as reduction of nitrobluetetrazolium measured for 10 mins by spectrophotometric analysis
Trypanosoma cruzi [11] = assay: Trypanocidal activity against epimastigote form of Trypanosoma cruzi IRHOD/CO/2008/SN3 assessed as appearance of large vacuoles at IC25 after 96 hrs by transmission electron microscopic analysis; type: functional, organism-based
Trypanosoma cruzi [12] = assay: Trypanocidal activity against bloodstream trypomastigote form of Trypanosoma cruzi IRHOD/CO/2008/SN3 infected in BALB/c mouse assessed as reduction of parasite load in liver at 5 mg/kg/day, ip administered for 5 days measured 150 days post-infection by PCR analysis; type: functional, organism-based
Trypanosoma cruzi [13] = assay: Trypanocidal activity against extracellular trypomastigote form of Trypanosoma cruzi IRHOD/CO/2008/SN3 after 24 hrs by Neubauer hemocytometric analysis; type: functional, organism-based; conditions: IRHOD/CO/2008/SN3, 24 h
Trypanosoma cruzi [14] = assay: Inhibition of Fe-SOD in Trypanosoma cruzi IRHOD/CO/2008/SN3 epimastigotes assessed as reduction of nitrobluetetrazolium at 12.5 to 25 uM measured for 10 mins by spectrophotometric analysis relative to control
Mus musculus [15] = assay: Hepatotoxicity in BALB/c mouse infected with bloodstream trypomastigote form of Trypanosoma cruzi IRHOD/CO/2008/SN3 assessed as hepatic destruction in portal space at 5 mg/kg/day, ip administered for 5 days measured 150 days post-infection by light microscopic analysis; type: toxicity, organism-based; set-up: route intraperitoneal; conditions: in vivo, 3600 h
[16] = Selectivity index, ratio of IC50 for African green monkey Vero cells to IC50 for extracellular epimastigote form of Trypanosoma cruzi IRHOD/CO/2008/SN3; type: toxicity, cell-based; conditions: read-out: Ratio IC50
Vero = assay: Cytotoxicity against African green monkey Vero cells after 72 hrs by flow cytometric analysis; type: cell-based; conditions: Chlorocebus sabaeus
Trypanosoma cruzi [17] = assay: Trypanocidal activity against epimastigote form of Trypanosoma cruzi IRHOD/CO/2008/SN3 assessed as effect on succinate production at IC25 after 96 hrs by NMR spectra analysis; type: functional, organism-based
Mus musculus [18] = assay: Hepatotoxicity in BALB/c mouse infected with bloodstream trypomastigote form of Trypanosoma cruzi IRHOD/CO/2008/SN3 assessed as lymphocytic infiltration in portal tracts at 5 mg/kg/day, ip administered for 5 days measured 150 days post-infection by light microscopic analysis; type: toxicity, organism-based; set-up: route intraperitoneal; conditions: in vivo, 3600 h
Trypanosoma cruzi [19] = assay: Trypanocidal activity against bloodstream trypomastigote form of Trypanosoma cruzi IRHOD/CO/2008/SN3 infected in BALB/c mouse assessed as reduction of circulating parasite burden at 5 mg/kg, ip administered for 5 to 10 days measured 22 to 60 days post-infection by Neubauer hemocytometric analysis; type: functional, organism-based; set-up: dose 5 mg/kg
Trypanosoma cruzi [20] = assay: Trypanocidal activity against bloodstream trypomastigote form of Trypanosoma cruzi IRHOD/CO/2008/SN3 infected in cyclophosphamide monohydrate-treated BALB/c immunosuppression mouse model assessed as reactivation of parasitemia level at 5 mg/kg/day, ip administered for 5 days measured 150 days post-infection (reference value: 91.7 %); type: functional; conditions: route intraperitoneal
Trypanosoma cruzi [21] = assay: Trypanocidal activity against bloodstream trypomastigote form of Trypanosoma cruzi IRHOD/CO/2008/SN3 infected in cyclophosphamide monohydrate-treated BALB/c immunosuppression mouse model assessed as reduction of parasite load in heart at 5 mg/kg/day, ip administered for 5 days measured 150 days post-infection by PCR analysis; type: functional, organism-based
Trypanosoma cruzi [22] = assay: Trypanocidal activity against trypomastigote form of Trypanosoma cruzi IRHOD/CO/2008/SN3 infected in African green monkey Vero cells assessed as inhibition of trypomastigotes released in culture medium at IC25 relative to control; type: functional
[23] = Inhibition of Escherichia coli Mn-SOD assessed as reduction of nitrobluetetrazolium measured for 10 mins by spectrophotometric analysis
Trypanosoma cruzi [24] = assay: Trypanocidal activity against epimastigote form of Trypanosoma cruzi IRHOD/CO/2008/SN3 assessed as empty mitochondria at IC25 after 96 hrs by transmission electron microscopic analysis; type: functional, organism-based
Trypanosoma cruzi [25] = assay: Trypanocidal activity against extracellular epimastigote form of Trypanosoma cruzi IRHOD/CO/2008/SN3 after 72 hrs by Neubauer hemocytometric analysis; type: functional, organism-based; conditions: IRHOD/CO/2008/SN3, 72 h
Trypanosoma cruzi [26] = assay: Trypanocidal activity against amastigote form of Trypanosoma cruzi IRHOD/CO/2008/SN3 infected in African green monkey Vero cells assessed as inhibition of amastigotes load per cell at IC25 preincubated for 12 hrs followed by compound washout measured after 10 days by Giemsa staining-based microscopic analysis relative to control; type: functional
Mus musculus [27] = assay: Hepatotoxicity in BALB/c mouse infected with bloodstream trypomastigote form of Trypanosoma cruzi IRHOD/CO/2008/SN3 assessed as interstitial hemorrhage at 5 mg/kg/day, ip administered for 5 days measured 150 days post-infection by light microscopic analysis; type: toxicity, organism-based; set-up: route intraperitoneal; conditions: in vivo, 3600 h

Q: What does the source list for Cl.c1cncc(CNCCN2CCNCc3cccc(n3)CNCC2)c1?
A: inhibition (INH) (Trypanosoma cruzi [1]): 86%; Activity (Trypanosoma cruzi [2]): Active; Activity (Mus musculus [3]): Non-toxic; Activity (Mus musculus [4]): Toxic; inhibition (Trypanosoma cruzi [5]): Active; Activity (Mus musculus [6]): Non-toxic; selectivity ratio [7]: 21.6; inhibition (Trypanosoma cruzi [8]): Active; Activity (Mus musculus [9]): Toxic; IC50 [10]: 10.8 µM; Activity (Trypanosoma cruzi [11]): Active; Activity (Trypanosoma cruzi [12]): Active; IC50 (Trypanosoma cruzi [13]): 19.7 µM; inhibition (Trypanosoma cruzi [14]): 100%; Activity (Mus musculus [15]): Non-toxic; selectivity ratio [16]: 52.7; IC50 (Vero): 425 µM; Activity (Trypanosoma cruzi [17]): inactive; Activity (Mus musculus [18]): Toxic; Activity (Trypanosoma cruzi [19]): Active; Activity (Trypanosoma cruzi [20]): 5.6%; Activity (Trypanosoma cruzi [21]): Active; inhibition (INH) (Trypanosoma cruzi [22]): 89%; IC50 [23]: 63.6 µM; Activity (Trypanosoma cruzi [24]): Active; IC50 (Trypanosoma cruzi [25]): 8 µM; inhibition (INH) (Trypanosoma cruzi [26]): 69%; Activity (Mus musculus [27]): Non-toxic
